From article PMC9501899 (Journal of the American Chemical Society, 2022)
Read-outs that look alike come from different tables or passages of the source.

Columns and labels:
[1] = target: T1, LRRK2-NanoLuc (Homo sapiens, UniProt Q5S007); assay: NanoBRET LRRK2 target engagement assay in HEK293 cells; type: binding; conditions: for IC50: permeabilized HEK293 cells
T1 construct: host or cells: HEK293
Protocol: Figure 9 Binding affinities to VHL and LRRK2. (A) Binding affinity of the tested compounds to VHL using the FP assay. […] NanoBRET target engagement assays of tested compounds to VHL (B) and LRRK2 (C) in permeabilized and live-cell modes. The indicated compounds were titrated into HEK293 cells transfected with VHL-NanoLuc (B) or LRRK2-NanoLuc fusion (C) in the presence of VHL tracer (B) or LRRK2 tracer (C). 0.25 and 0.5 μM VHL tracers were used for the permeabilized and live mode VHL engagement assays separately. 0.125 and 0.5 μM of LRRK2 tracer were used for the permeabilized and live mode LRRK2 engagement assays separately. The fractional occupancy of the tracers is plotted against the tested compounds’ concentrations and fitted into “nonlinear regression, one site-log IC50” to obtain the IC50 values of each compound against both permeabilized and live cells, separately. Data points are presented as mean ± SEM from three independent experiments. (D) The IC50 ratios between permeabilized and live mode target engagements of each compound were used to compare their permeabilities.
For VHL and LRRK2 target engagement experiments in live and permeabilized cells, the HEK293 cells were transfected with the VHL-NanoLuc fusion vector (Promega, N275A) or LRRK2-NanoLuc fusion vector (Promega, NV3401) following Promega’s protocol and seeded into a white 384-well plate (Corning3570) at a density of 6000 cells/well. […] The filtered luminescence was measured within 10 min following the addition of the substrate on a GloMax Discover microplate reader (Promega) or a PHERAstar (BMG LABTECH) plate reader equipped with a 450 nm bandpass filter (donor) and a 600 nm long-pass filter (acceptor). […] The plates were then cooled down, and a NanoBRET NanoGlo Substrate and an Extracellular NanoLuc Inhibitor (Promega, N2160) were added before performing the same NanoBRET reading as the permeabilized mode on plate readers. […]

[2] = target: T2, human LRRK2 (Homo sapiens, UniProt Q5S007); assay: LRRK2 degradation in peripheral blood mononuclear cells (PBMCs); type: cell-based
T2 construct: endogenous in cells; host or cells: human PBMCs from healthy donors
Text: The relative LRRK2 protein and pRab10 levels were obtained by quantifying the ratios of total LRRK2/GAPDH or Rab10-pThr73/total Rab10, respectively, and the ratios were normalized to the DMSO-treated samples. The relative LRRK2 and pRab10 protein levels were plotted against the compound concentration and fitted against “nonlinear regression, one site-fit log IC50” in GraphPad to obtain the DC50 and EC50 values. Data points are presented as mean ± standard error of the mean (SEM) from three biological independent replicates. […] The relative LRRK2 protein and pRab10 levels were obtained by quantifying the ratios of total LRRK2/ GAPDH or Rab10-pThr73/total Rab10, respectively, and the ratios were normalized to the DMSO-treated samples. The relative LRRK2 and pRab10 protein levels were plotted against the treatment time and were fitted against “nonlinear regression, one-phase decay” in GraphPad to obtain the half-life (T1/2) values. Data points are presented as mean ± SEM from three biological independent replicates. […] The relative LRRK2 levels were obtained by quantifying the ratios of total LRRK2/tubulin and normalized to the DMSO-treated samples. The relative LRRK2 levels were plotted against the compound concentration and fitted against “nonlinear regression, one site-fit log IC50” in GraphPad to obtain the DC50 values.
PBMC cells were separated from human blood from healthy volunteer donors following the existing protocol[82] and pelleted by centrifugation at 1000g for 2 min. The supernatant was discarded, and the PBMC pellet was resuspended in PBS containing 2% FBS for washing. The suspension was centrifuged at 1000g for 2 min again, and the PBMC pellet was resuspended in Roswell Park Memorial Institute (RPMI)-1640 (Gibco) media supplemented with 10% FBS. The cells were then seeded into six-well plates and treated with testing compounds at indicated concentrations and time periods. After treatment, the cells were collected into a 2 mL Eppendorf tube and centrifuged at 500g for 2 min to pellet the cells, the supernatant was discarded, and the pellet was resuspended in 1 mL PBS and centrifuged at 500g for 2 min again. The PBMC pellet was lysed with 60 μL of lysis buffer containing 50 mM tris–HCl, pH 7.5, 1% (v/v) Triton X-100, 1 mM ethylene glycol-bis(β-aminoethyl ether)-N,N,N′,N′-tetraacetic acid (EGTA), 1 mM sodium orthovanadate, 50 mM NaF, 0.1% (v/v) 2-mercaptoethanol, 10 mM 2-glycerophosphate, 5 mM sodium pyrophosphate, 0.1 μg/mL microcystin-LR (Enzo Life Sciences), 270 mM sucrose, and 0.5 mM diisopropyl fluorophosphate (DIFP) (Sigma-Aldrich, Cat# D0879) in addition to a complete EDTA-free protease inhibitor cocktail (Sigma-Aldrich Cat # 11836170001). DIFP is highly toxic and must be prepared in a fume hood to a stock solution of 0.5 M in isopropanol. The lysed cells were then centrifuged at 1500g for 15 min at 0 °C. The supernatants were collected for analysis by quantitative immunoblotting. For long-term storage, the supernatant was flash-frozen and stored at −80 °C. Protein concentrations of cell lysates were determined using the Pierce BCA Protein Assay Kit (Thermo Fisher).
Cell lysates containing a quarter of a volume of 4× NuPAGE LDS sample buffer (NP0007) supplemented with 5% β-mercaptoethanol were heated at 95 °C for 5 min. Samples (15–20 μg) were loaded onto precast 4–12% bis–tris midi 20W or 26W gels (Thermo Fisher Scientific, Cat# WG1402BOX or WG1403BOX) and resolved at 130 V for 2 h with a NuPAGE MOPS SDS running buffer (Thermo Fisher Scientific Cat# NP0001-02). Proteins were electrophoretically transferred onto a 0.45 μm nitrocellulose membrane (GE Healthcare, Amersham Protran Supported […] NC) at 90 V for 90 min on ice in a transfer buffer (48 mM tris base and 39 mM glycine supplemented with 20% methanol).

T2 sequence (Q5S007 whole entry): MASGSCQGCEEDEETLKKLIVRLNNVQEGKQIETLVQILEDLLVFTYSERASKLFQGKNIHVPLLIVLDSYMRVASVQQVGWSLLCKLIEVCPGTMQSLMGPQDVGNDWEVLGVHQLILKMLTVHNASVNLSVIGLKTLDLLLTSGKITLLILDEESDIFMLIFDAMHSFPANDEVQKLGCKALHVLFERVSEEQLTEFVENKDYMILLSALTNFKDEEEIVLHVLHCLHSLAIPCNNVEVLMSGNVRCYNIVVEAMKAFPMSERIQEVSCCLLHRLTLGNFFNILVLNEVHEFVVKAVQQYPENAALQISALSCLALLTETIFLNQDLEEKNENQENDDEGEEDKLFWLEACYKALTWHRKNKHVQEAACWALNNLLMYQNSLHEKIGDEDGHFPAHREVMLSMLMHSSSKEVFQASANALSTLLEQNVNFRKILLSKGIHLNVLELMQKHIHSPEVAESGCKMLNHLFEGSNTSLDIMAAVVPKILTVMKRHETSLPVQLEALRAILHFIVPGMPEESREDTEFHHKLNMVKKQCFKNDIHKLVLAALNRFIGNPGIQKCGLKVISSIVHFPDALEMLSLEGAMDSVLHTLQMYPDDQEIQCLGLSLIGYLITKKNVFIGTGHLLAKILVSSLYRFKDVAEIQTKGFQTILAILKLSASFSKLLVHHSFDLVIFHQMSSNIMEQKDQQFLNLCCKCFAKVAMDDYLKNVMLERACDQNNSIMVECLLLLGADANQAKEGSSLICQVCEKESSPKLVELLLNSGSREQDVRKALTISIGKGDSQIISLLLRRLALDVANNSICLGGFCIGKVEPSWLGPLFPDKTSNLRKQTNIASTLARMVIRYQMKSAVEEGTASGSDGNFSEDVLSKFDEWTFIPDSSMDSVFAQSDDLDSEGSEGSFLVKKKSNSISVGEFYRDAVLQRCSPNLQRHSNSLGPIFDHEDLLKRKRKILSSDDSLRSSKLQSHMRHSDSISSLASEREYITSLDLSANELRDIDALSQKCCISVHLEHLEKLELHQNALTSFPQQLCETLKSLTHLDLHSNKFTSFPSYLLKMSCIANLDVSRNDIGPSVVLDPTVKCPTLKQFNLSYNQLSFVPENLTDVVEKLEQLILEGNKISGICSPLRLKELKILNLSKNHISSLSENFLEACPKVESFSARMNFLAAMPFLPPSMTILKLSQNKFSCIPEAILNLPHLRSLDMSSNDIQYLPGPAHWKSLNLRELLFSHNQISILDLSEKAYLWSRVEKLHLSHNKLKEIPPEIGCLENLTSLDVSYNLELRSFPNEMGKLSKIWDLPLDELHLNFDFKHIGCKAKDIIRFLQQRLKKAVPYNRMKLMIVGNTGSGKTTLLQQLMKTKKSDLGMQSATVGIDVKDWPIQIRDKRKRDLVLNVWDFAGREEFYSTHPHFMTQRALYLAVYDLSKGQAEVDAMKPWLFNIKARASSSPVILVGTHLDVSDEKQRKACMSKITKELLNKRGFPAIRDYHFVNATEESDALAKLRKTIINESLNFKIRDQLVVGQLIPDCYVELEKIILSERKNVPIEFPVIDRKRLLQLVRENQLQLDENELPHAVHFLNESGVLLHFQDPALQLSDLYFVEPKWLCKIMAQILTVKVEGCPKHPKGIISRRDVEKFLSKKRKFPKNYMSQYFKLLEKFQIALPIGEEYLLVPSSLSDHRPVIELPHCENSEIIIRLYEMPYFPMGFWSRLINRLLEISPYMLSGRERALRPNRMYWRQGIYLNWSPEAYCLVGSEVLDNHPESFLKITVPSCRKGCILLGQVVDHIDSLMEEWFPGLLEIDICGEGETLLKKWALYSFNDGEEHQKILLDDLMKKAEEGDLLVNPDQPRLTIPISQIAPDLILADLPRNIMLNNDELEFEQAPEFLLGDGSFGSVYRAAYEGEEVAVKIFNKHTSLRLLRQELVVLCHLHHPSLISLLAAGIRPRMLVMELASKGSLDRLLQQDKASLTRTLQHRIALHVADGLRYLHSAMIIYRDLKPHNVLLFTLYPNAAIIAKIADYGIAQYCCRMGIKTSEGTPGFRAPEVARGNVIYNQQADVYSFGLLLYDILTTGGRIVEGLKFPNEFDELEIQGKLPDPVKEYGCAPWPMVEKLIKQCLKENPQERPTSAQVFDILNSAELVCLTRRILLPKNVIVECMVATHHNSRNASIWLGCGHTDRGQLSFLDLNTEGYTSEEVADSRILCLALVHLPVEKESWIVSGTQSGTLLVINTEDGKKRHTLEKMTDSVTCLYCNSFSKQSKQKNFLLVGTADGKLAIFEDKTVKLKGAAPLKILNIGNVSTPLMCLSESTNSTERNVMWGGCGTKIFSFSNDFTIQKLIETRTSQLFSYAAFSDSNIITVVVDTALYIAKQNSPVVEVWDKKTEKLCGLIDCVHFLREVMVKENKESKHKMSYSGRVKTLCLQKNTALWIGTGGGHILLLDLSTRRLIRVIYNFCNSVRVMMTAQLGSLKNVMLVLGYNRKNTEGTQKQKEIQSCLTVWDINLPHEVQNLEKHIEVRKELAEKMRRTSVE
T1 sequence (Q5S007 whole entry): as above

## CNc1nc(Nc2ccc(C(=O)N3CCN(CCOCCOCCSC(C)(C)[C@H](NC(=O)C4(F)CC4)C(=O)N4C[C@H](O)C[C@H]4C(=O)NCc4ccc(-c5scnc5C)cc4)CC3)cc2OC)ncc1Cl [SD75]
[1]; ratio used to compare permeabilities
  LRRK2 IC50 Permeabilized/IC50 Live: 0.43

## CNc1nc(Nc2ccc(C(=O)N3CCN(C[C@H]4CC[C@H](CSC(C)(C)[C@H](NC(=O)C5(F)CC5)C(=O)N5C[C@H](O)CC5C(=O)NCc5ccc(-c6scnc6C)cc5)CC4)CC3)cc2OC)ncc1Cl (stereo partly drawn) [XL01126, (2S,4R)-1-((R)-3-((((1R,4R)-4-((4-(4-((5-Chloro-4-(methylamino)pyrimidin-2-yl)amino)-3-methoxybenzoyl)piperazin-1-yl)methyl)cyclohexyl)methyl)thio)-2-(1-fluorocyclopropane-1-carboxamido)-3-methylbutanoyl)-4-hydroxy-N-(4-(4-methylthiazol-5-yl)benzyl)pyrrolidine-2-carboxamide]
[2]; 4 h, read-out: DC50,4h (LRRK2)
  DC50: 72 nM
[2]; 24 h, read-out: DC50,24h (LRRK2)
  DC50: 17 nM
[1]
  IC50: 2600 nM

## CNc1nc(Nc2ccc(C(=O)N3CCN(C[C@H]4CC[C@@H](CSC(C)(C)[C@H](NC(=O)C5(F)CC5)C(=O)N5C[C@H](O)CC5C(=O)NCc5ccc(-c6scnc6C)cc5)CC4)CC3)cc2OC)ncc1Cl (stereo partly drawn) [XL01134]
[1]
  IC50: 2000 nM

## CNc1nc(Nc2ccc(C(=O)N3CCN(C[C@H]4CC[C@H](CSC(C)(C)[C@H](NC(=O)C5(F)CC5)C(=O)N5C[C@@H](O)C[C@H]5C(=O)NCc5ccc(-c6scnc6C)cc5)CC4)CC3)cc2OC)ncc1Cl [cis-XL01126, (2S,4S)-1-((R)-3-((((1R,4R)-4-((4-(4-((5-Chloro-4-(methylamino)pyrimidin-2-yl)amino)-3-methoxybenzoyl)piperazin-1-yl)methyl)cyclohexyl)methyl)thio)-2-(1-fluorocyclopropane-1-carboxamido)-3-methylbutanoyl)-4-hydroxy-N-(4-(4-methylthiazol-5-yl)benzyl)pyrrolidine-2-carboxamide]
[2]; 4 h
  DC50,4h (LRRK2): NDO
  Dmax (LRRK2): NDO
[2]; 24 h
  DC50,24h (LRRK2): NDO
  Dmax (LRRK2): NDO
